“Also recorded” adds a separate entry of the source.
How the values were obtained:
[1] = tested on: HSA-induced suppression of Aβ fibrillation; parameters: method as in 2 sources, ref 5 = [5]; PMID 10347147; doi:10.1074/jbc.274.23.15990; 5. Bohrmann B. Tjernberg L. Kuner P. Poli S. Levet-Trafit B. Naslund J. Richards G. Huber W. Dobeli H. Nordstedt C. Endogenous proteins controlling amyloid beta-peptide polymerization. Possible implic ||| ref 14 = [14]; PMID 29409811; doi:10.1016/j.jmb.2018.01.008; 14. Bode D.C. Stanyon H.F. Hirani T. Baker M.D. Nield J. Viles J.H. Serum albumin’s protective inhibition of amyloid-β fiber formation is suppressed by cholesterol, fatty acids and warfarin J. Mol. Bi; settings: cited from earlier work
[2] = target: T1, HSA–monomeric Aβ40 (recombinant human Aβ40) (Homo sapiens, UniProt P02768); test: SPR of HSA interaction with immobilized monomeric Aβ40, without/with SRO or TRP; settings: SPR 25 °C; for Kd: KD (apparent, HSA–Aβ40), KD × 10^7, i.e. value × 10^−7 M; for Kd / ka (effective, HSA–Aβ40) / kd (effective, HSA–Aβ40): HSA 5–60 µM, mean ± SD; for ka (effective, HSA–Aβ40): ka × 10^−3, i.e. value × 10^3 M^−1s^−1; for kd (effective, HSA–Aβ40): kd × 10^4, i.e. value × 10^−4 s^−1
T1 sequence (P05067 672-711): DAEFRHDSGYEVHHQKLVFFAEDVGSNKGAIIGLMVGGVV
T1 sequence (P02768 25-609): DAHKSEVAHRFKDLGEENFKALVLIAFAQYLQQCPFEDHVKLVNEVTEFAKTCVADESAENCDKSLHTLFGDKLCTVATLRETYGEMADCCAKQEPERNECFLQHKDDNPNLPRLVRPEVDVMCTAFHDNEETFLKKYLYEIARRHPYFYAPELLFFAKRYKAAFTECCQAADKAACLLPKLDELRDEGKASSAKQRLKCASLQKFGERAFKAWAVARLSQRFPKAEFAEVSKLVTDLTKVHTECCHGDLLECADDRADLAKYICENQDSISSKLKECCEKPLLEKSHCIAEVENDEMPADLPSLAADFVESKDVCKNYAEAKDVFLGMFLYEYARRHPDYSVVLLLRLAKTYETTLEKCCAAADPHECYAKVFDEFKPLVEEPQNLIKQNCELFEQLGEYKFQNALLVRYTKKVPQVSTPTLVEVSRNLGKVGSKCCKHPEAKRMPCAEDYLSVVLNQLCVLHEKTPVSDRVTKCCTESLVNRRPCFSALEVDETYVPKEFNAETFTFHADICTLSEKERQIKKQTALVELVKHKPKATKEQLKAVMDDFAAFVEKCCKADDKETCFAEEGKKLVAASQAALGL
Protocol: (§1) The recombinant human Aβ40 or Aβ42 sample was immobilized on the surface of the SPR sensor chip by amine coupling, followed by removal from the surface of the non-covalently bound Aβ molecules by a 2% SDS water solution [12]. […] (5–60 µM) was used as an analyte.
(§2) Aβ40/Aβ42 was immobilized on the sensor chip’s surface by amine coupling.
(§3) Recombinant human Aβ40/Aβ42 samples were pretreated for SPR measurements mainly as described in [46]. The freeze-dried Aβ sample was dissolved in neat TFA at a concentration of 0.5–1 mg/mL. The solution was sonicated for 30 s. TFA was evaporated using Eppendorf Concentrator plus. The dried Aβ sample was dissolved in DMSO at a concentration of 2 mg/mL, and stored at −20 °C.
(§4) SPR measurements were performed at 25 °C using a Bio-Rad ProteOn™ XPR36 instrument mainly as previously described. Ligand (57 μg/mL recombinant human Aβ40/Aβ42 in 10 mM sodium acetate, pH 4.5 buffer) was immobilized on a ProteOn GLH sensor chip surface (up to 7000–9000 RUs) by amine coupling. The remaining activated amine groups on the chip surface were blocked by 1 M ethanolamine solution. The non-covalently bound Aβ40/Aβ42 molecules were washed from the chip surface with 2% SDS water solution until stabilization of the signal. […] The sensor chip surface was regenerated by passage of 10 mM EDTA pH 7.9 solution containing 2% SDS. […] The double-referenced SPR sensograms were globally fitted according to the one-site binding model using Bio-Rad ProteOn Manager™ v.3.1 software.

[3] = target: T2, HSA–monomeric Aβ42 (recombinant human Aβ42) (Homo sapiens, UniProt P02768); test: SPR of HSA interaction with immobilized monomeric Aβ42, without/with SRO or TRP; settings: SPR 25 °C; for Kd: KD (apparent, HSA–Aβ42), KD × 10^7, i.e. value × 10^−7 M; for Kd / ka (effective, HSA–Aβ42) / kd (effective, HSA–Aβ42): HSA 5–60 µM, mean ± SD; for ka (effective, HSA–Aβ42): ka × 10^−3, i.e. value × 10^3 M^−1s^−1; for kd (effective, HSA–Aβ42): kd × 10^4, i.e. value × 10^−4 s^−1
T2 sequence (P05067 672-713): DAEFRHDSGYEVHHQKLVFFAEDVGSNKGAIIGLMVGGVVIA
T2 sequence (P02768 25-609): as the sequence (P02768 25-609) above
Protocol: as §1, §2, §3, §4

[4] = tested on: HSA–monomeric Aβ; test: SPR of HSA interaction with monomeric Aβ (isoform not given); assay type: binding, human
[5] = tested on: HSA; test: Glutaraldehyde crosslinking of HSA with SDS-PAGE; parameters: species or system human; settings: HSA 36 µM, 37 °C; for effect on quaternary structure of HSA: 1 mM ligand, glutaraldehyde crosslinking, overall statements also rest on DLS
[6] = tested on: HSA; test: Dynamic light scattering of HSA; parameters: species or system human; settings: 1 mM SRO, HSA 36 µM, 25 °C, pH 7.4
Protocol: The standard deviations are indicated.
The back-scattered light from a 4 mW He/Ne laser (632.8 nm) was collected at an angle of 173°. The acquisition time for a single autocorrelation function was 45 s. The resulting autocorrelation functions are averaged values from 20 measurements. The volume–size distributions were calculated using the following parameters: a refractive index of 1.330 and a viscosity value of 0.8882 cP.

[7] = tested on: HSA; parameters: method as in PMID 17191887; settings: read-out: equilibrium dissociation constant (KD) for the HSA–SRO complex; cited from earlier work
[8] = tested on: Aβ42; parameters: method as in PMID 29131485; settings: cited from earlier work
[9] = physiological (endogenous), cited from earlier work
Protocol: (§5) The SRO concentration in plasma is 0.28–1.7 µM [40], but in the synaptic cleft it may reach 6 mM and 55 nM after SRO diffuses into the extracellular compartment.

[10] = tested on: Aβ level in interstitial brain fluid; settings: direct infusion into the hippocampus, mouse model of AD; cited from earlier work
Protocol: as §5

[11] = target: T1, HSA–monomeric Aβ40 (recombinant human Aβ40); parameters: method as in PMID 30685090; settings: cited from earlier work
[12] = target: T2, HSA–monomeric Aβ42 (recombinant human Aβ42); parameters: method as in PMID 30685090; settings: cited from earlier work
[13] = tested on: HSA–monomeric Aβ; settings: cited from earlier work
Text: (§6) An alternative, less invasive approach to the lowering of the free Aβ level in the brain is a pharmacologically guided shift in the equilibrium between HSA and Aβ towards their complex. The latter possibility was recently confirmed by arachidonic/linoleic-aci ...

[14] = tested on: brain Aβ deposition in AD mouse models; settings: dietary; cited from earlier work
Text: as §6

[15] = tested on: HSA; settings: cited from earlier work
[16] = 1 mM SRO, main cause of KD decrease

SMILES | effect on HSA-induced suppression of Aβ fibrillation [1] | Kd ([2]; 10 µM HSA ligand, pH 7.4) [nM] | Kd ([2]; 1 mM HSA ligand, pH 7.4) [nM] | ka (effective, HSA–Aβ40) ([2]; 10 µM HSA ligand, pH 7.4) | ka (effective, HSA–Aβ40) ([2]; 100 µM HSA ligand, pH 7.4) | ka (effective, HSA–Aβ40) ([2]; 1 mM HSA ligand, pH 7.4) | kd (effective, HSA–Aβ40) ([2]; 10 µM HSA ligand, pH 7.4) | kd (effective, HSA–Aβ40) ([2]; 100 µM HSA ligand, pH 7.4) | kd (effective, HSA–Aβ40) ([2]; 1 mM HSA ligand, pH 7.4) | Kd ([3]; 10 µM HSA ligand, pH 7.4) [nM] | Kd ([3]; 1 mM HSA ligand, pH 7.4) [nM] | ka (effective, HSA–Aβ42) ([3]; 10 µM HSA ligand, pH 7.4) | ka (effective, HSA–Aβ42) ([3]; 100 µM HSA ligand, pH 7.4) | ka (effective, HSA–Aβ42) ([3]; 1 mM HSA ligand, pH 7.4) | kd (effective, HSA–Aβ42) ([3]; 10 µM HSA ligand, pH 7.4) | kd (effective, HSA–Aβ42) ([3]; 100 µM HSA ligand, pH 7.4) | effect on HSA's affinity to monomeric Aβ / activation of HSA–Aβ interaction ([4]; general statement, SPR) | effect on quaternary structure of HSA [5] | fold decrease in KD of HSA–monomeric Aβ40 [11] [fold] | fold decrease in KD of HSA–monomeric Aβ42 [12] [fold] | other results
CC(=O)CC(c1ccccc1)c1c(O)c2ccccc2oc1=O (stereo not drawn) [warfarin] | prevent HSA-induced suppression of Aβ fibrillation | – | – | – | – | – | – | – | – | – | – | – | – | – | – | – | – | – | – | – | –
CC(C)CCC[C@@H](C)[C@H]1CC[C@H]2[C@@H]3CC=C4C[C@@H](O)CC[C@]4(C)[C@H]3CC[C@]12C [cholesterol] | prevent HSA-induced suppression of Aβ fibrillation | – | – | – | – | – | – | – | – | – | – | – | – | – | – | – | – | – | – | – | –
NCCc1c[nH]c2ccc(O)cc12 [SRO, 5-hydroxytryptamine] | – | 40 ± 20 | 9 ± 5 | 0.7 ± 0.2 × 10^−3, M^−1s^−1 | 1.5 ± 1.2 × 10^−3, M^−1s^−1 | 1.0 ± 0.5 × 10^−3, M^−1s^−1 | 0.26 ± 0.03 × 10^4, s^−1 | 0.19 ± 0.12 × 10^4, s^−1 | 0.09 ± 0.05 × 10^4, s^−1 | 40 ± 20 | 7 ± 1.5 | 0.6 ± 0.4 × 10^−3, M^−1s^−1 | 0.9 ± 0.2 × 10^−3, M^−1s^−1 | 1.2 ± 0.2 × 10^−3, M^−1s^−1 | 0.20 ± 0.14 × 10^4, s^−1 | 0.08 ± 0.02 × 10^4, s^−1 | the most potent activator of HSA–Aβ interaction reported to date | more distinct changes in the quaternary structure of HSA, relative to the TRP-induced effects; also recorded: more marked changes in the quaternary structure of HSA | – | – | factor of decrease in apparent KD / increase in affinity of HSA–Aβ40 ([2]; 1 mM SRO vs no ligand, pH 7.4): 7 factor; effect on dissociation of HSA–Aβ40 complex [2, 16]: slowdown of the dissociation process; Kd ([2]; 100 µM HSA ligand, pH 7.4): 15 ± 13 nM; factor of decrease in apparent KD / increase in affinity of HSA–Aβ42 ([3]; 1 mM SRO vs no ligand, pH 7.4): 17 factor; effect on dissociation of HSA–Aβ42 complex [3, 16]: slowdown of the dissociation process; Kd ([3]; 100 µM HSA ligand, pH 7.4): 9 ± 4 nM; kd (effective, HSA–Aβ42) ([3]; 1 mM HSA ligand, pH 7.4): 0.086 ± 0.009 × 10^4, s^−1; effect on HSA's affinity to Aβ ([4]; 10 µM SRO, SPR 25 °C): absence of a marked influence; fold decrease in KD of HSA–Aβ ([4]; up to, vs no ligand): ≤ 17 fold; fold increase in content of HSA high-molecular-weight forms (at the expense of the monomer) ([5]; 1 mM SRO, 0.02% glutaraldehyde, 1 h, pH 7.4): approximately 2 fold; accumulation of multimeric HSA forms (DLS), compared with TRP [6]: more prominent accumulation of its multimeric forms; Kd [7]: 1600 nM; inhibition of Aβ42 fibrillation ([8]; 50–100 µM SRO): efficient inhibition of Aβ42 fibrillation; also recorded: potent inhibition of Aβ42 fibrillation; SRO concentration after diffusion into the extracellular compartment ([9]; may reach): ≤ 55 nM; SRO concentration in the synaptic cleft ([9]; may reach): ≤ 6 mM; SRO concentration in plasma [9]: 0.28 to 1.7 µM; Aβ level in interstitial brain fluid [10]: decrease in the Aβ level in interstitial brain fluid
CCCCC/C=C\C/C=C\CCCCCCCC(=O)O [linoleic acid] | – | – | – | – | – | – | – | – | – | – | – | – | – | – | – | – | – | – | 3 | 3 | effect on HSA affinity to Aβ [13]: enhancement of HSA affinity to Aβ; effect on brain Aβ deposition [14]: reduces brain Aβ deposition
N[C@@H](Cc1c[nH]c2ccccc12)C(=O)O [TRP, L-tryptophan] | – | 80 ± 40 | 70 ± 40 | 0.7 ± 0.2 × 10^−3, M^−1s^−1 | 0.47 ± 0.15 × 10^−3, M^−1s^−1 | 0.6 ± 0.2 × 10^−3, M^−1s^−1 | 0.49 ± 0.12 × 10^4, s^−1 | 0.53 ± 0.17 × 10^4, s^−1 | 0.4 ± 0.2 × 10^4, s^−1 | 60 ± 40 | 60 ± 30 | 0.8 ± 0.4 × 10^−3, M^−1s^−1 | 0.5 ± 0.3 × 10^−3, M^−1s^−1 | 0.29 ± 0.07 × 10^−3, M^−1s^−1 | 0.4 ± 0.2 × 10^4, s^−1 | 0.7 ± 0.6 × 10^4, s^−1 | does not affect HSA’s affinity to monomeric Aβ; also recorded: did not affect HSA’s effective affinity for Aβ; also recorded: inactive | did not affect the quaternary structure of HSA | – | – | effect on HSA's apparent affinity to Aβ40 ([2]; 1 mM ligand): did not affect HSA’s apparent affinity; effect on kinetics of HSA–Aβ42 interaction ([3]; 1 mM TRP): slowdown of the association and dissociation processes; effect on HSA's apparent affinity to Aβ42 ([3]; 1 mM ligand): did not affect HSA’s apparent affinity; effect on kinetics of HSA–Aβ interaction ([4]; general statement, SPR): slowdown of the association and dissociation processes; also recorded: slowed their association and dissociation; equilibrium association constant of TRP with HSA [15]: 27000 M⁻¹; inhibition of Aβ42 fibrillation compared with SRO [8]: markedly less effective; also recorded: much less efficient inhibition of Aβ42 fibrillation
CCCCC/C=C\C/C=C\C/C=C\C/C=C\CCCC(=O)O [arachidonic acid] | – | – | – | – | – | – | – | – | – | – | – | – | – | – | – | – | – | – | 3 | 3 | effect on HSA affinity to Aβ [13]: enhancement of HSA affinity to Aβ
